Source: ChEMBL document CHEMBL3259703, “Synthesis and preliminary biological evaluation of 1,2,3-triazole-Jaspine B hybrids as potential cytotoxic agents” (Eur J Med Chem, 2014)

Experiments:
MGC-803 [1] = experiment: Antiproliferative activity against human MGC803 cells after 48 hrs by MTT assay; assay type: functional, cell-based; settings: MGC-803, 48 h
MCF7 [2] = experiment: Antiproliferative activity against human MCF7 cells after 48 hrs by MTT assay; assay type: functional, cell-based; settings: MCF7, 48 h
[3] = Antiproliferative activity against human EC9706 cells after 48 hrs by MTT assay; assay type: functional, cell-based; settings: EC9706, 48 h
MCF7 [4] = experiment: Induction of apoptosis in human MCF7 cells assessed as early apoptotic cells at 4 uM after 8 hrs using Annexin V/PI double staining by flow cytometry (reference value: 8.2 %); assay type: functional
MCF7 [5] = experiment: Cell cycle arrest in human MCF7 cells assessed as accumulation at G2/M phase at 2 uM after 8 hrs using propidium iodide staining by flow cytometry (reference value: 19.35 %); assay type: functional
MCF7 [6] = experiment: Cell cycle arrest in human MCF7 cells assessed as accumulation at S phase at 4 uM after 16 hrs using propidium iodide staining by flow cytometry (reference value: 30.05 %); assay type: functional
MCF7 [7] = experiment: Induction of apoptosis in human MCF7 cells assessed as viable cells at 4 uM after 16 hrs using Annexin V/PI double staining by flow cytometry (reference value: 87.5 %); assay type: functional; settings: MCF7, 16 h, read-out: Activity
MCF7 [8] = experiment: Cell cycle arrest in human MCF7 cells assessed as accumulation at G0/G1 phase at 4 uM after 16 hrs using propidium iodide staining by flow cytometry (reference value: 46.01 %); assay type: functional
MGC-803 [9] = experiment: Ratio of IC50 Jaspine B to compound IC50 for human MGC803 cells after 48 hrs by MTT assay; assay type: functional
MCF7 [10] = experiment: Induction of apoptosis in human MCF7 cells assessed as viable cells at 4 uM after 8 hrs using Annexin V/PI double staining by flow cytometry (reference value: 84.3 %); assay type: functional; settings: MCF7, 8 h, read-out: Activity
MCF7 [11] = experiment: Induction of apoptosis in human MCF7 cells assessed as viable cells at 8 uM after 8 hrs using Annexin V/PI double staining by flow cytometry (reference value: 84.3 %); assay type: functional; settings: MCF7, 8 h, read-out: Activity
MCF7 [12] = experiment: Cell cycle arrest in human MCF7 cells assessed as accumulation at G2/M phase at 8 uM after 16 hrs using propidium iodide staining by flow cytometry (reference value: 20.08 %); assay type: functional
MCF7 [13] = experiment: Induction of apoptosis in human MCF7 cells assessed as necrotic cells at 8 uM after 16 hrs using Annexin V/PI double staining by flow cytometry (reference value: 0.7 %); assay type: functional
MCF7 [14] = experiment: Cell cycle arrest in human MCF7 cells assessed as accumulation at G0/G1 phase at 8 uM after 16 hrs using propidium iodide staining by flow cytometry (reference value: 46.01 %); assay type: functional
MCF7 [15] = experiment: Induction of apoptosis in human MCF7 cells assessed as early apoptotic cells at 2 uM after 16 hrs using Annexin V/PI double staining by flow cytometry (reference value: 11.1 %); assay type: functional
MCF7 [16] = experiment: Induction of apoptosis in human MCF7 cells assessed as viable cells at 2 uM after 8 hrs using Annexin V/PI double staining by flow cytometry (reference value: 84.3 %); assay type: functional; settings: MCF7, 8 h, read-out: Activity
MCF7 [17] = experiment: Induction of apoptosis in human MCF7 cells assessed as necrotic cells at 2 uM after 16 hrs using Annexin V/PI double staining by flow cytometry (reference value: 0.7 %); assay type: functional
MCF7 [18] = experiment: Cell cycle arrest in human MCF7 cells assessed as accumulation at S phase at 2 uM after 8 hrs using propidium iodide staining by flow cytometry (reference value: 33.03 %); assay type: functional
MCF7 [19] = experiment: Induction of apoptosis in human MCF7 cells assessed as late apoptotic cells at 8 uM after 16 hrs using Annexin V/PI double staining by flow cytometry (reference value: 0.7 %); assay type: functional
MCF7 [20] = experiment: Induction of apoptosis in human MCF7 cells assessed as late apoptotic cells at 8 uM after 8 hrs using Annexin V/PI double staining by flow cytometry (reference value: 6.8 %); assay type: functional
MCF7 [21] = experiment: Cell cycle arrest in human MCF7 cells assessed as accumulation at S phase at 2 uM after 16 hrs using propidium iodide staining by flow cytometry (reference value: 30.05 %); assay type: functional
MCF7 [22] = experiment: Cell cycle arrest in human MCF7 cells assessed as accumulation at S phase at 8 uM after 8 hrs using propidium iodide staining by flow cytometry (reference value: 33.03 %); assay type: functional
MCF7 [23] = experiment: Cell cycle arrest in human MCF7 cells assessed as accumulation at G2/M phase at 4 uM after 16 hrs using propidium iodide staining by flow cytometry (reference value: 20.08 %); assay type: functional
MCF7 [24] = experiment: Induction of apoptosis in human MCF7 cells assessed as necrotic cells at 4 uM after 8 hrs using Annexin V/PI double staining by flow cytometry (reference value: 0.6 %); assay type: functional
MCF7 [25] = experiment: Ratio of IC50 Jaspine B to compound IC50 for human MCF7 cells after 48 hrs by MTT assay; assay type: functional
MCF7 [26] = experiment: Cell cycle arrest in human MCF7 cells assessed as accumulation at G0/G1 phase at 8 uM after 8 hrs using propidium iodide staining by flow cytometry (reference value: 47.36 %); assay type: functional
MCF7 [27] = experiment: Cell cycle arrest in human MCF7 cells assessed as accumulation at G0/G1 phase at 4 uM after 8 hrs using propidium iodide staining by flow cytometry (reference value: 47.36 %); assay type: functional
MCF7 [28] = experiment: Cell cycle arrest in human MCF7 cells assessed as accumulation at G2/M phase at 4 uM after 8 hrs using propidium iodide staining by flow cytometry (reference value: 19.35 %); assay type: functional
MCF7 [29] = experiment: Induction of apoptosis in human MCF7 cells assessed as late apoptotic cells at 4 uM after 8 hrs using Annexin V/PI double staining by flow cytometry (reference value: 6.8 %); assay type: functional
MCF7 [30] = experiment: Cell cycle arrest in human MCF7 cells assessed as accumulation at G2/M phase at 2 uM after 16 hrs using propidium iodide staining by flow cytometry (reference value: 20.08 %); assay type: functional
MCF7 [31] = experiment: Cell cycle arrest in human MCF7 cells assessed as accumulation at G0/G1 phase at 2 uM after 16 hrs using propidium iodide staining by flow cytometry (reference value: 46.01 %); assay type: functional
MCF7 [32] = experiment: Induction of apoptosis in human MCF7 cells assessed as early apoptotic cells at 8 uM after 8 hrs using Annexin V/PI double staining by flow cytometry (reference value: 8.2 %); assay type: functional
MCF7 [33] = experiment: Induction of apoptosis in human MCF7 cells assessed as early apoptotic cells at 2 uM after 8 hrs using Annexin V/PI double staining by flow cytometry (reference value: 8.2 %); assay type: functional
MCF7 [34] = experiment: Induction of apoptosis in human MCF7 cells assessed as necrotic cells at 4 uM after 16 hrs using Annexin V/PI double staining by flow cytometry (reference value: 0.7 %); assay type: functional
MCF7 [35] = experiment: Induction of apoptosis in human MCF7 cells assessed as early apoptotic cells at 8 uM after 16 hrs using Annexin V/PI double staining by flow cytometry (reference value: 11.1 %); assay type: functional
[36] = Ratio of IC50 Jaspine B to compound IC50 for human EC9706 cells after 48 hrs by MTT assay; assay type: functional
MCF7 [37] = experiment: Induction of apoptosis in human MCF7 cells assessed as necrotic cells at 2 uM after 8 hrs using Annexin V/PI double staining by flow cytometry (reference value: 0.6 %); assay type: functional
MCF7 [38] = experiment: Induction of apoptosis in human MCF7 cells assessed as early apoptotic cells at 4 uM after 16 hrs using Annexin V/PI double staining by flow cytometry (reference value: 11.1 %); assay type: functional
MCF7 [39] = experiment: Cell cycle arrest in human MCF7 cells assessed as accumulation at S phase at 4 uM after 8 hrs using propidium iodide staining by flow cytometry (reference value: 33.03 %); assay type: functional
MCF7 [40] = experiment: Cell cycle arrest in human MCF7 cells assessed as accumulation at G0/G1 phase at 2 uM after 8 hrs using propidium iodide staining by flow cytometry (reference value: 47.36 %); assay type: functional
MCF7 [41] = experiment: Induction of apoptosis in human MCF7 cells assessed as viable cells at 8 uM after 16 hrs using Annexin V/PI double staining by flow cytometry (reference value: 87.5 %); assay type: functional; settings: MCF7, 16 h, read-out: Activity
MCF7 [42] = experiment: Induction of apoptosis in human MCF7 cells assessed as viable cells at 2 uM after 16 hrs using Annexin V/PI double staining by flow cytometry (reference value: 87.5 %); assay type: functional; settings: MCF7, 16 h, read-out: Activity
MCF7 [43] = experiment: Cell cycle arrest in human MCF7 cells assessed as accumulation at S phase at 8 uM after 16 hrs using propidium iodide staining by flow cytometry (reference value: 30.05 %); assay type: functional
MCF7 [44] = experiment: Induction of apoptosis in human MCF7 cells assessed as late apoptotic cells at 2 uM after 8 hrs using Annexin V/PI double staining by flow cytometry (reference value: 6.8 %); assay type: functional
MCF7 [45] = experiment: Induction of apoptosis in human MCF7 cells assessed as necrotic cells at 8 uM after 8 hrs using Annexin V/PI double staining by flow cytometry (reference value: 0.6 %); assay type: functional
MCF7 [46] = experiment: Induction of apoptosis in human MCF7 cells assessed as late apoptotic cells at 2 uM after 16 hrs using Annexin V/PI double staining by flow cytometry (reference value: 0.7 %); assay type: functional
MCF7 [47] = experiment: Induction of apoptosis in human MCF7 cells assessed as late apoptotic cells at 4 uM after 16 hrs using Annexin V/PI double staining by flow cytometry (reference value: 0.7 %); assay type: functional
MCF7 [48] = experiment: Cell cycle arrest in human MCF7 cells assessed as accumulation at G2/M phase at 8 uM after 8 hrs using propidium iodide staining by flow cytometry (reference value: 19.35 %); assay type: functional

SMILES: CCCCCCCCn1cc(COC[C@@H]2OC[C@H](N)[C@H]2O)nn1
- IC50 (MGC-803 [1]): > 128 µM
- IC50 (MCF7 [2]): > 128 µM
- IC50 [3]: > 128 µM

SMILES: CCCCCCCCCn1cc(COC[C@@H]2OC[C@H](N)[C@H]2O)nn1
- IC50 (MGC-803 [1]): > 128 µM
- IC50 (MCF7 [2]): > 128 µM
- IC50 [3]: > 128 µM

SMILES: CCCCCCCCCCn1cc(COC[C@@H]2OC[C@H](N)[C@H]2O)nn1
- IC50 (MGC-803 [1]): 57.4 µM
- IC50 (MCF7 [2]): 45 µM
- IC50 [3]: 43.1 µM

SMILES: CCCCCCCCCCCCn1cc(COC[C@@H]2OC[C@H](N)[C@H]2O)nn1
- IC50 (MGC-803 [1]): 115 µM
- IC50 (MCF7 [2]): 2.62 µM
- IC50 [3]: 93.8 µM

SMILES: CCCCCCCCCCCCCCn1cc(COC[C@@H]2OC[C@H](N)[C@H]2O)nn1
- IC50 (MGC-803 [1]): 8.79 µM
- IC50 (MCF7 [2]): 2.45 µM
- IC50 [3]: 6.68 µM

SMILES: CCCCCCCCCCCCCCCCn1cc(COC[C@@H]2OC[C@H](N)[C@H]2O)nn1
- IC50 (MGC-803 [1]): 5.34 µM
- IC50 (MCF7 [2]): 2.26 µM
- IC50 [3]: 6.31 µM

SMILES: CCCCCCCCCCCCCCCCCCn1cc(COC[C@@H]2OC[C@H](N)[C@H]2O)nn1
- Activity (MCF7 [4]): 13.9%
- Activity (MCF7 [5]): 27.97%
- Activity (MCF7 [6]): 17.16%
- viability at 4 µM (MCF7 [7]): 38.2%
- Activity (MCF7 [8]): 42.05%
- Ratio IC50 (MGC-803 [9]): 2
- IC50 (MGC-803 [1]): 3.11 µM
- viability at 4 µM (MCF7 [10]): 71.5%
- viability at 8 µM (MCF7 [11]): 56.3%
- Activity (MCF7 [12]): 47.4%
- Activity (MCF7 [13]): 5.5%
- Activity (MCF7 [14]): 25.7%
- Activity (MCF7 [15]): 31.4%
- viability at 2 µM (MCF7 [16]): 81%
- Activity (MCF7 [17]): 4.9%
- Activity (MCF7 [18]): 29.66%
- Activity (MCF7 [19]): 12.5%
- Activity (MCF7 [20]): 18.6%
- IC50 (MCF7 [2]): 1.93 µM
- Activity (MCF7 [21]): 20.04%
- Activity (MCF7 [22]): 36.69%
- Activity (MCF7 [23]): 36.4%
- Activity (MCF7 [24]): 0.5%
- Ratio IC50 (MCF7 [25]): 2
- Activity (MCF7 [26]): 19.11%
- Activity (MCF7 [27]): 33.13%
- Activity (MCF7 [28]): 30.72%
- Activity (MCF7 [29]): 14.1%
- Activity (MCF7 [30]): 28.6%
- Activity (MCF7 [31]): 48.63%
- IC50 [3]: 2.29 µM
- Activity (MCF7 [32]): 23.8%
- Activity (MCF7 [33]): 12%
- Activity (MCF7 [34]): 5.2%
- Activity (MCF7 [35]): 57.9%
- Ratio IC50 [36]: 2
- Activity (MCF7 [37]): 1.2%
- Activity (MCF7 [38]): 45%
- Activity (MCF7 [39]): 28.66%
- Activity (MCF7 [40]): 42.27%
- viability at 8 µM (MCF7 [41]): 24%
- viability at 2 µM (MCF7 [42]): 58.5%
- Activity (MCF7 [43]): 23.53%
- Activity (MCF7 [44]): 5.9%
- Activity (MCF7 [45]): 1.4%
- Activity (MCF7 [46]): 5.1%
- Activity (MCF7 [47]): 11.6%
- Activity (MCF7 [48]): 39.13%

SMILES: O=c1[nH]cc(F)c(=O)[nH]1 [FLUOROURACIL]
- IC50 (MGC-803 [1]): 11.3 µM
- IC50 (MCF7 [2]): 3.52 µM
- IC50 [3]: 9.45 µM

SMILES: CCCCCCCCCCCCCC[C@@H]1OC[C@H](N)[C@@H]1O [PACHASTRISSAMINE]
- IC50 (MGC-803 [1]): 5.1 µM
- IC50 (MCF7 [2]): 4.84 µM
- IC50 [3]: 6.12 µM
